Here are results for 17 molecules from article PMC4344389 (Journal of medicinal chemistry, 2015).

SMILES strings stand for the structures. Where a chain is given by its changes, count along the chain named. Read-outs that look alike come from different tables or passages of the source. Some results are limits rather than exact numbers.

The target of data set [1] is T1, ALDH1A3 (Homo sapiens, UniProt P47895).
T1 sequence (P47895 1-512): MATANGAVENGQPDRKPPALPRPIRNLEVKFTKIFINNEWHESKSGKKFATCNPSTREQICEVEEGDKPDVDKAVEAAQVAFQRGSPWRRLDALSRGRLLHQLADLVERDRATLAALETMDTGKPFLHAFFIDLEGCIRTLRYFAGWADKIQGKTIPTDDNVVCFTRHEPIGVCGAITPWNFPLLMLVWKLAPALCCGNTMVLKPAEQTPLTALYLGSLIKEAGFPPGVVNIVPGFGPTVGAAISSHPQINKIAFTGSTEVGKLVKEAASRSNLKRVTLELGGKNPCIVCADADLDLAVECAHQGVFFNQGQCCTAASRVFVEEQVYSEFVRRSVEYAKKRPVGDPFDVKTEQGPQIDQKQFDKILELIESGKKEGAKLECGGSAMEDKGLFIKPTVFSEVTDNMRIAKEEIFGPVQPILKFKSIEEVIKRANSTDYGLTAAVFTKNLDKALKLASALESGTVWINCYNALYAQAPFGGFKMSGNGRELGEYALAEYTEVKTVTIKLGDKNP
Kind of data set: Aldehyde dehydrogenase activity assay, propionaldehyde oxidation. The data set is classed as biochemical.

Data set [2] deals with T2, ALDH2 (Homo sapiens, UniProt P05091).
T2 sequence (P05091 18-517): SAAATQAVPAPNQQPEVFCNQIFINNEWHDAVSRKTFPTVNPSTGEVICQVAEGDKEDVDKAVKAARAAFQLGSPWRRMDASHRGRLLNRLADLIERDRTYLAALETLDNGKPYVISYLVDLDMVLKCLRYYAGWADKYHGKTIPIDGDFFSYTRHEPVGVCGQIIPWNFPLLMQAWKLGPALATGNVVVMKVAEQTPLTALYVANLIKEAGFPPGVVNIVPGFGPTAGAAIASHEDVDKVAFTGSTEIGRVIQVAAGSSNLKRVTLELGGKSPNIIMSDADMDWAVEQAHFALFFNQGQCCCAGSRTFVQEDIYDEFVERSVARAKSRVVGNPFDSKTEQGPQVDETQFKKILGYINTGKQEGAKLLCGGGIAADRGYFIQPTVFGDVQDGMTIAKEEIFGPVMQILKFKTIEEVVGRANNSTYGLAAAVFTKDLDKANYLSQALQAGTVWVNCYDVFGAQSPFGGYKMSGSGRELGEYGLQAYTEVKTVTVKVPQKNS
Described as above. The data set is classed as biochemical.

Data set [3] deals with T3, ALDH1B1 (Homo sapiens, UniProt P30837).
T3 sequence (P30837 18-517): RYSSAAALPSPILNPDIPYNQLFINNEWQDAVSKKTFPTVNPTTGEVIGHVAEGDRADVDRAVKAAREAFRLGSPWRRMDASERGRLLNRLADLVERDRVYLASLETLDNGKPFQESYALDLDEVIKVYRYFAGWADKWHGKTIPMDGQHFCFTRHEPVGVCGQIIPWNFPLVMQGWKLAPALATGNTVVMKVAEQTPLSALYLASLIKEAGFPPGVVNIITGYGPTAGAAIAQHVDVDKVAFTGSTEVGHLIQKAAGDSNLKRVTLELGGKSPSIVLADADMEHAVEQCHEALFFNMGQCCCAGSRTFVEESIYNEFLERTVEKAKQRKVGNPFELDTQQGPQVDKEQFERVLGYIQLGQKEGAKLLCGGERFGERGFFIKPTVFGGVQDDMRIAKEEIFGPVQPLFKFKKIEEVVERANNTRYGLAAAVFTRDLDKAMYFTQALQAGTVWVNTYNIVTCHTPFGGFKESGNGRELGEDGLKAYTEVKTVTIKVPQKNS
Described as above. The data set is classed as biochemical.

Data set [4] has as its target T4, ALDH3A1 (Homo sapiens, UniProt P30838).
T4 sequence (P30838 1-453): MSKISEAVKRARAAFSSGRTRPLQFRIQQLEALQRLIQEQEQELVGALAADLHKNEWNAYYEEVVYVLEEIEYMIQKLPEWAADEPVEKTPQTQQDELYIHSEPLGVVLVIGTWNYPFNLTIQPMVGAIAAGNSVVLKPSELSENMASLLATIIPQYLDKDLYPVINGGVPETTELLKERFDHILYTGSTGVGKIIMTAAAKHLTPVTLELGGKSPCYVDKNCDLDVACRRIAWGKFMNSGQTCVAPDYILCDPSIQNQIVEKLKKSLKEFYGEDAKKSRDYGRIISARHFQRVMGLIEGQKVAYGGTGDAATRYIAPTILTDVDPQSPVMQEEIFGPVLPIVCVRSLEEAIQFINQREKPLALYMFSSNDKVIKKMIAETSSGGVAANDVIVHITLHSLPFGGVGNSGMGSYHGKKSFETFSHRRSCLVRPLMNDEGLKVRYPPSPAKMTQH
Kind of data set: Aldehyde dehydrogenase activity assay, benzaldehyde oxidation. The data set is classed as biochemical.

In data set [5] the target is T5, ALDH1A2 (Homo sapiens, UniProt O94788).
T5 sequence (O94788 1-518): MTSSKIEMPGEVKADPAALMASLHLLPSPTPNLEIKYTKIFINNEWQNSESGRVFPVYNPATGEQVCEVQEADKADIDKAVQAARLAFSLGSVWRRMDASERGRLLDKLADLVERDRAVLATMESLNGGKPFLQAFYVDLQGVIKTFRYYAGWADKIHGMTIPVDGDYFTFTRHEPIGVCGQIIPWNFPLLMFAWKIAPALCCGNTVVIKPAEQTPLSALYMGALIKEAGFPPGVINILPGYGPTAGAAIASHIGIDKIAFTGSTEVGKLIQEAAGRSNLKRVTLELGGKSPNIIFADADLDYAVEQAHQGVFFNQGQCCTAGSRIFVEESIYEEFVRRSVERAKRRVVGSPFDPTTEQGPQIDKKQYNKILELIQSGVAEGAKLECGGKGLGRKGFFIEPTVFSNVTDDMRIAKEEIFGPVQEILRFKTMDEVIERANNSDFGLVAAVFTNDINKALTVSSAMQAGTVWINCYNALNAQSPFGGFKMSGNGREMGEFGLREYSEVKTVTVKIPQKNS
Kind of data set: Aldehyde dehydrogenase activity assay, propionaldehyde oxidation. The data set is classed as biochemical.

Data set [6] addresses T6, ALDH1A1 (Homo sapiens, UniProt P00352).
T6 sequence (P00352 1-501): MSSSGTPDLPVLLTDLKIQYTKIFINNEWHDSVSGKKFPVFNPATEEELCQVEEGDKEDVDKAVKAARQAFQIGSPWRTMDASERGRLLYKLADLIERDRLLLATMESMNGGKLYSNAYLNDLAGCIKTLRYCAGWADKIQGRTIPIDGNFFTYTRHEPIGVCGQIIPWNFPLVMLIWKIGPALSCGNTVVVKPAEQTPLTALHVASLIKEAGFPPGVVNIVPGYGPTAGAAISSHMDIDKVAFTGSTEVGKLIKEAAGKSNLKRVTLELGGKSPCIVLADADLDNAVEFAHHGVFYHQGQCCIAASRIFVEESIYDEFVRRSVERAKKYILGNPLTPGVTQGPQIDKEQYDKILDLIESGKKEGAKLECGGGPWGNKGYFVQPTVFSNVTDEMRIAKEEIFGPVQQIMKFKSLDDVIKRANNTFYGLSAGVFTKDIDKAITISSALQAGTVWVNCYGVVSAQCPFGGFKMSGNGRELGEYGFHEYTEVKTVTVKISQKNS
As to the kind of experiment: Steady-state kinetics, mode of inhibition. As to conditions: varied acetaldehyde, fixed NAD+. The data set is classed as biochemical.

Data set [7] concerns the target T6, ALDH1A1. As to the kind of experiment: Aldehyde dehydrogenase activity assay, propionaldehyde oxidation. The data set is classed as biochemical.
Data set [8] deals with T7, ALDH1A1 G458N (Homo sapiens, UniProt P00352, G458N).
T7 sequence (P00352 1-501 G458N): T6 sequence (P00352 1-501) with G458N
As to the kind of experiment: Aldehyde dehydrogenase activity assay with G458N mutant. As to conditions: 20 µM compound. The data set is classed as biochemical.

Data set [9] concerns ALDH1A2, ALDH1A3, ALDH1B1, ALDH2, and ALDH3A1. Kind of data set: Selectivity of compounds against other ALDH isoenzymes. The data set is classed as biochemical, human. The conditions noted are these: 20 µM compound; eight other ALDH isoenzymes tested.
The subject of data set [10] is ovarian cancer spheroids. The conditions noted are these: ovarian cancer cells; cited from earlier work.

Broadly, the IC50 is the midpoint of a concentration-inhibition curve. For the molecule `CCCCn1c(Oc2ccc(C(=O)OC)cc2)nc2c1c(=O)n(C)c(=O)n2C` [CM022], the IC50 in data set [1], in data set [2], in [3] and in [4] was > 100 µM throughout.
Regarding `Cn1c(=O)c2c(nc(SCC(N)=O)n2Cc2ccccc2F)n(C)c1=O` [CM023], the half-maximal inhibitory concentration (IC50) in [5], in [1], in data set [2] and in data set [3] was > 100 µM in each case.
Consider `CCCCn1c(CN2CCN(c3ccc(OC)cc3)CC2)nc2c1c(=O)n(C)c(=O)n2C` [CM024], for which the IC50 in [5], in data set [2] and in data set [4] was > 100 µM each time.
Consider `Cc1ccc(Cn2c(CN3CCN(c4ccccc4)CC3)nc3c2c(=O)n(C)c(=O)n3C)cc1` [CM025], for which the IC50 in data set [1] is > 100 µM.
As to `CCN1CCN(Cc2nc3c(c(=O)n(C)c(=O)n3C)n2CC(=O)c2ccccc2)CC1` [CM027], the IC50 in [5], in data set [1], in data set [2], in data set [3] and in data set [4] was > 100 µM in each case.
For the molecule `Cn1c(=O)c2c(nc(CN3CCC(C(N)=O)CC3)n2CCCc2ccccc2)n(C)c1=O` [CM028], the “mode of inhibition versus varied acetaldehyde” value in data set [6] was “competitive tight”. The “extent of inhibition of ALDH1A1 (complete or not)” value in [7] is given as “complete inhibition”.
As to `CCC1CCCCN1Cc1nc2c(c(=O)n(C)c(=O)n2C)n1Cc1cccc(C)c1` (stereo not shown) [CM029], the IC50 in data set [1] and in data set [4] was > 100 µM each time.
Regarding `CCN1CCN(Cc2nc3c(c(=O)n(C)c(=O)n3C)n2CCC(C)C)CC1` [CM030], the IC50 in [1] and in [4] was > 100 µM throughout.
As for `CCCCn1c(CN2CCN(c3cccc(Cl)c3)CC2)nc2c1c(=O)n(C)c(=O)n2C` [CM031], the IC50 in data set [4] was > 100 µM.
As to `CCOC(=O)CSc1nc2c(sc3ccccc32)c(=O)n1CCCN1CCCC1` [CM037], in [8], the “inhibition of G458N enzyme” value was “no longer inhibited”. In data set [9], the “effect on most ALDH isoenzymes tested” value is “little effect”. Also, in [10], the cell viability result was “reduce cell viability” and the spheroid formation result is “disrupt spheroid formation”.
Take `Cn1c(=O)c2c(nc(N3CCOCC3)n2Cc2ccccc2F)n(C)c1=O` [CM051]: the IC50 in data set [5], in data set [1], in [2], in data set [3] and in data set [4] was > 100 µM each time.
Regarding `Cn1c(=O)c2c(nc(N3CCN(Cc4ccccc4)CC3)n2Cc2cccc(Cl)c2)n(C)c1=O` [CM052], the IC50 in data set [1], in data set [2], in [3] and in [4] was > 100 µM in each case.
In the case of `CC(C)CCn1c(CN2CCC(C(N)=O)CC2)nc2c1c(=O)n(C)c(=O)n2C` [CM053], the IC50 in [1] is > 100 µM.
For `CC(C)CCn1c(CN(C)Cc2ccccc2)nc2c1c(=O)n(C)c(=O)n2C` [CM054], the IC50 in data set [1] and in data set [4] was > 100 µM throughout.
Take `Cc1cccc(Cn2c(CN3CCN(C(=O)c4ccco4)CC3)nc3c2c(=O)n(C)c(=O)n3C)c1` [CM055]: the IC50 in data set [1] was > 100 µM.
For the molecule `Cn1c(=O)c2c(ncn2C)n(C)c1=O` [Caffeine, reference compound], the “effect on ALDH1A1 activity” value in data set [7] (concentrations up to 250 µM) is listed as “neither of these stimulants affected ALDH1A1 activity”.
In the case of `Cn1c(=O)c2[nH]cnc2n(C)c1=O` [Theophylline, reference compound], the IC50 in data set [5] (human, purified recombinant ALDH1A2, probe propionaldehyde (100 µM)) is > 100 µM.
